According to patent publication US8394829B2, “Bi-functional quinoline analogs” (Gilead Sciences, Inc., priority 2010, dated 2013):

What was measured:
[1] = target: T1, Human recombinant PDE4B2 (Homo sapiens, UniProt Q07343); experiment: Inhibition of PDE4B4 enzyme activity (PDE Glo Assay); format: biochemical; settings: human recombinant PDE4B2, 50 nM cAMP; read-out: PDE4 IC50
T1 construct: purchased BPS Bioscience
Method in brief: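 Human recombinant PDE4B2 (0.12 nM) was pre-incubated with compound for 10 min at rt, then 50 nM cAMP was added for 1 hr. After IBMX stop and PKA detection, read-out was Kinase-Glo luminescence. IC50 came from a single-site nonlinear fit of RLU versus concentration.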

[2] = target: T2, human recombinant beta-2 adrenoreceptors (Homo sapiens, UniProt P07550); experiment: Beta-2 adrenoceptor binding assay ([3H](−)CGP-12177 displacement); settings: CHO cells expressing human beta-2 adrenoreceptors, [3H](−)CGP-12177 0.3 nM, 120 min
T2 construct: expressed in transfected cells; host or cells: CHO cells
T2 sequence (P07550 whole entry): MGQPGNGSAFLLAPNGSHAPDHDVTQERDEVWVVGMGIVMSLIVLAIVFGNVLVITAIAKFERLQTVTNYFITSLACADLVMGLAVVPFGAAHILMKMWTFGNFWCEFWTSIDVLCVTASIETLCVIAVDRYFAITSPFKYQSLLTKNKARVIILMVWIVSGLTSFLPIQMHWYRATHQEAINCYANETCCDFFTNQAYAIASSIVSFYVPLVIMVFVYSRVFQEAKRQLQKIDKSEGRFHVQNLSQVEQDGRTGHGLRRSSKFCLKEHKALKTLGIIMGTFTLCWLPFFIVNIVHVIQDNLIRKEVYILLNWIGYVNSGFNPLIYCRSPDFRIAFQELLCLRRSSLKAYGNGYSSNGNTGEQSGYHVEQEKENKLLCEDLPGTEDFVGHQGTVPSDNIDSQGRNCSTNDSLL
Method in brief: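 Displacement of [3H](−)CGP-12177 (0.3 nM) from human recombinant beta-2 receptors expressed in CHO cells, measured after 120 min incubation with test compound. Bound radioligand counted by scintillation; IC50 taken from concentration-response curves as 50% of each compound's maximal inhibition.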

[3] = target: T2, human recombinant beta-2 adrenoreceptors; experiment: Functional agonism of human recombinant beta-2 adrenoreceptors expressed in CHO cells (cAMP HTRF); format: cell-based; settings: CHO cells expressing human beta-2 adrenoreceptors, cAMP elevation, 30 min
Method in brief: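 CHO cells expressing recombinant receptor incubated with compound for 30 min; intracellular cAMP rise over control read by HTRF. EC50 taken as concentration giving 50% of that compound's own maximal response, with full or partial agonism judged against isoproterenol maximum.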

[4] = test system: LPS-induced TNF-α release from human peripheral blood mononuclear cells (PBMC); experiment: Inhibition of LPS-induced TNF-α release from human PBMC; format: cell-based; settings: LPS 0.4 ng/mL, 6 h, presence or absence of ICI-118551 not given
Method in brief: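 Ficoll-purified primary PBMC, 100,000 cells/well, pre-incubated 30 min ± 10 μM ICI-118551 (± gives PDE4-only vs PDE4 plus beta-2 activity), then compound 1 h at 37 °C (0.1% DMSO). Stimulated with 0.4 ng/mL LPS for 6 h; supernatant TNF-α by bead cytokine assay; IC50 from single-site fit.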

T1 sequence (Q07343 1-564 isoform Q07343-2): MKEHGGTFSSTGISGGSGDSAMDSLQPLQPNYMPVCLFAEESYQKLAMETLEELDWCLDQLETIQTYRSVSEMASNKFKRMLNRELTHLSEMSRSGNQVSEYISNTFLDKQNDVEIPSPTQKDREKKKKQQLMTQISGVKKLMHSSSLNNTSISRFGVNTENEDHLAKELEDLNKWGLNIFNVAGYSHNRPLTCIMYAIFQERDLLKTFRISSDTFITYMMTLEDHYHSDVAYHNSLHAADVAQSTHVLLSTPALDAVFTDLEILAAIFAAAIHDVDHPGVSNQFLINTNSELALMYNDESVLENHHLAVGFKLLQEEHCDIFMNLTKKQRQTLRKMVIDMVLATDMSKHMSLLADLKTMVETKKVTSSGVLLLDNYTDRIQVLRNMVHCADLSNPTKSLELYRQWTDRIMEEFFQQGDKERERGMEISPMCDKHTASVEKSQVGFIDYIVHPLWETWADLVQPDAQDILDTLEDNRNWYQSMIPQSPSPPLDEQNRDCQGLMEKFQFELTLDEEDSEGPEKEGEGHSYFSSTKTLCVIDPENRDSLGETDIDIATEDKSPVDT

Row | SMILES | IC50 [1] [nM] | IC50 [2] [nM] | EC50 [3] [nM] | EC50 [4] [nM]
1 | COc1cccc(Nc2c(C(N)=O)cnc3c(C)cc(S(=O)(=O)c4cccc(C(=O)N(C)CCCCCCNC[C@H](O)c5ccc(O)c6c5OCC(=O)N6)c4)cc23)c1 [Example 30, (R)-6-((3-((6-((2-hydroxy-2-(5-hydroxy-3-oxo-3,4-dihydro-2H-benzo[b][1,4]oxazin-8-yl)ethyl)amino)hexyl)(methyl)carbamoyl)phenyl)sulfonyl)-4-((3-methoxyphenyl)amino)-8-methylquinoline-3-carboxamide] | < 100 | < 100 | < 100 | < 100
2 | COc1cccc(Nc2c(C(N)=O)cnc3c(C)cc(S(=O)(=O)c4cccc(C(=O)Nc5ccc(C#CCCCNC[C@H](O)c6ccc(O)c(NC=O)c6)cc5)c4)cc23)c1 [Example 31, (R)-6-[[3-[[4-[5-[[2-(3-Formamido-4-hydroxyphenyl)-2-hydroxyethyl]amino]pent-1-ynyl]phenyl]carbamoyl]phenyl]sulfonyl]-4-[(3-methoxyphenyl)amino]-8-methylquinoline-3-carboxamide] | < 100 | < 300 | < 300 | < 100
3 | COc1cccc(Nc2c(C(N)=O)cnc3c(C)cc(S(=O)(=O)c4cccc(C(=O)Nc5ccc(C#CCCCNC[C@H](O)c6ccc(O)c7c6OCC(=O)N7)cc5)c4)cc23)c1 [Example 32, (R)-6-((3-((4-(5-((2-hydroxy-2-(5-hydroxy-3-oxo-3,4-dihydro-2H-benzo[b][1,4]oxazin-8-yl)ethyl)amino)pent-1-yn-1-yl)phenyl)carbamoyl)phenyl)sulfonyl)-4-((3-methoxyphenyl)amino)-8-methylquinoline-3-carboxamide] | < 100 | < 100 | < 100 | < 100
4 | COc1cccc(Nc2c(C(N)=O)cnc3c(C)cc(S(=O)(=O)c4cccc(C(=O)N(C)c5ccc(C#CCCCNC[C@H](O)c6ccc(O)c7[nH]c(=O)ccc67)cc5)c4)cc23)c1 [Example 33, (R)-6-((3-((4-(5-((2-hydroxy-2-(8-hydroxy-2-oxo-1,2-dihydroquinolin-5-yl)ethyl)amino)pent-1-yn-1-yl)phenyl)(methyl)carbamoyl)phenyl)sulfonyl)-4-((3-methoxyphenyl)amino)-8-methylquinoline-3-carboxamide] | < 100 | < 100 | < 100 | < 100
5 | COc1cccc(Nc2c(C(N)=O)cnc3c(C)cc(S(=O)(=O)c4cccc(C(=O)Nc5ccc(C#CCCCNC[C@H](O)c6ccc(O)c7[nH]c(=O)ccc67)cc5C)c4)cc23)c1 [Example 34, (R)-6-((3-((4-(5-((2-hydroxy-2-(8-hydroxy-2-oxo-1,2-dihydroquinolin-5-yl)ethyl)amino)pent-1-yn-1-yl)-2-methylphenyl)carbamoyl)phenyl)sulfonyl)-4-((3-methoxyphenyl)amino)-8-methylquinoline-3-carboxamide] | < 100 | < 100 | < 100 | < 100
6 | COc1cccc(Nc2c(C(N)=O)cnc3c(C)cc(S(=O)(=O)c4cccc(C(=O)Nc5ccc(C6(CCCCNC[C@H](O)c7ccc(O)c8[nH]c(=O)ccc78)SCCS6)cc5)c4)cc23)c1 [Example 37, (R)-6-((3-((4-(2-(4-((2-hydroxy-2-(8-hydroxy-2-oxo-1,2-dihydroquinolin-5-yl)ethyl)amino)butyl)-1,3-dithiolan-2-yl)phenyl)carbamoyl)phenyl)sulfonyl)-4-((3-methoxyphenyl)amino)-8-methylquinoline-3-carboxamide] | < 100 | < 100 | < 100 | < 100
7 | COc1cccc(Nc2c(C(N)=O)cnc3c(C)cc(S(=O)(=O)c4cccc(C(=O)Nc5ccc(CCCCOCCCCCCNC[C@H](O)c6ccc(O)c7[nH]c(=O)ccc67)cc5)c4)cc23)c1 [Example 38, (R)-6-((3-((4-(4-((6-((2-hydroxy-2-(8-hydroxy-2-oxo-1,2-dihydroquinolin-5-yl)ethyl)amino)hexyl)oxy)butyl)phenyl)carbamoyl)phenyl)sulfonyl)-4-((3-methoxyphenyl)amino)-8-methylquinoline-3-carboxamide] | < 100 | < 100 | < 100 | < 100
8 | COc1cccc(Nc2c(C(N)=O)cnc3c(C)cc(S(=O)(=O)c4cccc(C(=O)Nc5ccc(CCOCCCCCCNC[C@H](O)c6ccc(O)c7[nH]c(=O)ccc67)cc5)c4)cc23)c1 [Example 39, (R)-6-((3-((4-(2-((6-((2-hydroxy-2-(8-hydroxy-2-oxo-1,2-dihydroquinolin-5-yl)ethyl)amino)hexyl)oxy)ethyl)phenyl)carbamoyl)phenyl)sulfonyl)-4-((3-methoxyphenyl)amino)-8-methylquinoline-3-carboxamide] | < 100 | < 100 | < 100 | < 100
9 | COc1cccc(Nc2c(C(N)=O)cnc3c(C)cc(S(=O)(=O)c4cccc(C(=O)NCCCCCCNC[C@H](O)c5ccc(O)c(CO)c5)c4)cc23)c1 [Example 41, (R)-6-[[3-[[6-[[2-Hydroxy-2-[4-hydroxy-3-(hydroxymethyl)phenyl]ethyl]amino]hexyl]carbamoyl]phenyl]sulfonyl]-4-[(3-methoxyphenyl)amino]-8-methylquinoline-3-carboxamide] | < 100 | < 100 | < 100 | < 100
10 | COc1cccc(Nc2c(C(N)=O)cnc3c(C)cc(S(=O)(=O)c4cccc(C(=O)NCCCCCCNC[C@H](O)c5ccc(O)c(NS(C)(=O)=O)c5)c4)cc23)c1 [Example 43, (R)-6-[[3-[[6-[[2-Hydroxy-2-[4-hydroxy-3-(methylsulfonamido)phenyl]ethyl]amino]hexyl]carbamoyl]phenyl]sulfonyl]-4-[(3-methoxyphenyl)amino]-8-methylquinoline-3-carboxamide] | < 100 | < 100 | < 100 | < 100
11 | COc1cccc(Nc2c(C(N)=O)cnc3c(C)cc(S(=O)(=O)c4cccc(C(=O)N(C)CCCCCCNC[C@H](O)c5ccc(O)c(CO)c5)c4)cc23)c1 [Example 44, (R)-6-[[3-[[6-[[2-Hydroxy-2-(4-hydroxy-3-(hydroxymethyl]phenyl]ethyl]amino)hexyl](methyl)carbamoyl]phenyl]sulfonyl]-4-[(3-methoxyphenyl)amino]-8-methylquinoline-3-carboxamide] | < 100 | > 300 | > 300 | < 100
12 | COc1cccc(Nc2c(C(N)=O)cnc3c(C)cc(S(=O)(=O)CCCCCCCCCCCNC[C@H](O)c4ccc(O)c5[nH]c(=O)ccc45)cc23)c1 [Example 45, (R)-6-((11-((2-hydroxy-2-(8-hydroxy-2-oxo-1,2-dihydroquinolin-5-yl)ethyl)amino)undecyl)sulfonyl)-4-((3-methoxyphenyl)amino)-8-methylquinoline-3-carboxamide] | < 100 | < 100 | < 100 | < 100
13 | COc1cccc(Nc2c(C(N)=O)cnc3c(C)cc(S(=O)(=O)CCCCCCCCCCCNC[C@H](O)c4cc(O)cc5c4OCC(=O)N5)cc23)c1 [Example 46, (R)-6-((11-((2-hydroxy-2-(6-hydroxy-3-oxo-3,4-dihydro-2H-benzo[b][1,4]oxazin-8-yl)ethyl)amino)undecyl)sulfonyl)-4-((3-methoxyphenyl)amino)-8-methylquinoline-3-carboxamide] | < 100 | < 100 | < 300 | < 100
14 | COc1cccc(Nc2c(C(N)=O)cnc3c(C)cc(S(=O)(=O)c4cccc(-c5ccc(CNC[C@H](O)c6ccc(O)c7[nH]c(=O)ccc67)cc5)c4)cc23)c1 [Example 47, (R)-6-((4′-(((2-hydroxy-2-(8-hydroxy-2-oxo-1,2-dihydroquinolin-5-yl)ethyl)amino)methyl)-[1,1′-biphenyl]-3-yl)sulfonyl)-4-((3-methoxyphenyl)amino)-8-methylquinoline-3-carboxamide] | < 100 | > 300 | > 300 | < 100
15 | COc1cccc(Nc2c(C(N)=O)cnc3c(C)cc(S(=O)(=O)c4ccc(-c5ccc(CNC[C@H](O)c6ccc(O)c7[nH]c(=O)ccc67)cc5)cc4)cc23)c1 [Example 48, (R)-6-((4′-(((2-hydroxy-2-(8-hydroxy-2-oxo-1,2-dihydroquinolin-5-yl)ethyl)amino)methyl)-[1,1′-biphenyl]-4-yl)sulfonyl)-4-((3-methoxyphenyl)amino)-8-methylquinoline-3-carboxamide] | < 100 | < 100 | < 100 | < 100
